Data taken from patent US11192916B2, “Pentacyclic triterpene compound and preparation method therefor, and pharmaceutical composition and use thereof” (SHANGHAI INSTITUTE OF MATERIA MEDICA, CHINESE ACADEMY OF …, priority 2017, dated 2021).

Legend:
Assay type in all cases: cell-based
FXR = biological target: T1, FXR (Homo sapiens, UniProt Q96RI1); assay: FXR antagonist test, luciferase reporter gene experiment against agonist GW4064; conditions: antagonistic activity; HEK293 cells co-transfected with LBD(hFXR)-pbind and luciferase reporter; GW4064 300 nM
T1 sequence (Q96RI1 262-486 limits assumed): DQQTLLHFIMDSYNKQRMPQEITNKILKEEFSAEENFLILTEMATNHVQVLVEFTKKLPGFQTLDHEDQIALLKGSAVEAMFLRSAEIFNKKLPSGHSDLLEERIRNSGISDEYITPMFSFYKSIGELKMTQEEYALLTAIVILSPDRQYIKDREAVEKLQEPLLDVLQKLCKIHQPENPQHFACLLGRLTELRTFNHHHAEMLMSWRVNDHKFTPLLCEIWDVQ
From the text: The antagonistic activity of the compound against FXR was detected by the reporter gene experiment. FXR is a nuclear receptor activated by bile acids and has regulatory effects on glucose metabolism and lipid metabolism in the body. After FXR is activated, it can initiate the expression of a series of genes and respond to external stimuli. The Luciferase reporter gene system is a reporting system for detecting firefly luciferase activity. Luciferase can catalyze the oxidation of Luciferin, a fluorescent substrate, and cause emition of biological fluorescence at the same time. The amount of luciferase expression can be determined by detecting the fluorescence intensity. In this experiment, the test compound may target FXR, and GW4064 is a known FXR agonist, which initiates the expression of a series of genes after binding to the FXR ligand-binding domain. Therefore, the reporter gene experiment was used. Two plasmids, LBD (hFXR)-pbind and PGL4.31-Luc were co-transfected into HEK293 cells to express the FXR ligand-binding domain in the cells. Two test compounds were separately added and a blank control group was set, and then an agonist was added. If the compound has affinity for FXR, it will compete with the agonist for binding to the FXR ligand-binding domain and affect the expression of luciferase in pGL4.31-Luc. The Envision2101 multi-well microplate reader was used to detect the chemiluminescence count value, and the effect of the test compound on FXR activity was judged based on the fluorescence intensity. 2 μg of the chimeric plasmid LBD(hFXR)-pbind and 2 μg of Luciferase reporter plasmid were co-transfected into 2×10^6 HEK293 cells and inoculated in white opaque 96-well plates. After 24 h, the culture medium was discarded, and the test compound (diluted with serum-free culture medium, containing 1% DMSO) was added and incubated for 1 h. Then FXR agonist GW4064 (300 nM) was added to stimulate for 6 h, and finally luciferase substrate was added and shaken to lyse. Luminescence was measured on the Envision 2104 microplate reader.

TGR5 = biological target: T2, TGR5 (Homo sapiens, UniProt Q8TDU6); assay: TGR5 agonist test, HTRF cAMP detection in HEK293 cells transiently transfected with TGR5; conditions: Table 2, TGR5 agonistic activity, HEK293 cells expressing TGR5, up to 100 μM, read-out: FXR (IC50/μM)
T2 construct: expressed in transfected cells; host or cells: HEK293
T2 sequence (Q8TDU6 1-330): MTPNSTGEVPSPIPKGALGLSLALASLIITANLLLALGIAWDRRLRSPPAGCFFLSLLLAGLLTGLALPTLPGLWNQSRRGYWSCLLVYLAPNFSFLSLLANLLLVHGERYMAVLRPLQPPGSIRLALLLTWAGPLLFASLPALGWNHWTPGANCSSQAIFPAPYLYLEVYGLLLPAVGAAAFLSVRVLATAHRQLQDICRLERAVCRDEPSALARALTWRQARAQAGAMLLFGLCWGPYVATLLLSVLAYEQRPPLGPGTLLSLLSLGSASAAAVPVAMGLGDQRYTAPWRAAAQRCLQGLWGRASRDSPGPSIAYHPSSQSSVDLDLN
From the text: HEK293 cells transiently transfected with TGR5 were stimulated with compounds, and then homogeneous time-resolved fluorescence (HTRF) was used to detect whether these compounds could agitate TGR5.
TGR5 is a bile acid membrane receptor and a member of the GPCR family. It regulates the metabolism of bile acids, lipids, and sugars. TGR5 is coupled to the Gs protein, and after activation, it further activates adenylate cyclase to produce a second messenger cAMP. HTRF is a method for detecting the content of cAMP and combines two techniques of fluorescence resonance energy transfer (FRET) and time-resolved fluorescence (TRF). […] FRET induces the acceptor to generate fluorescence, and Eu has a long fluorescence lifetime. TRF can distinguish the fluorescent signal by the acceptor from the fluorescent background. The fluorescent donor is bound to a cAMP-specific antibody, and cAMP is simultaneously labeled with a fluorescent acceptor. The donor and acceptor approach to each other through the antigen-antibody specific recognition reaction to generate FRET, and the cAMP produced by the cell competes with the labeled cAMP for antibody binding sites, resulting in the decrease of fluorescence intensity.
4.1. The test compound was prepared with 1× PBS into a solution having 2 times of the final concentration. The final concentration was 100 μM, 10 μM, 1 μM, 100 nM, 10 nM, 1 nM, 0.1 nM, DMSO (each well contains 1% DMSO).
4.2.2. The cell density was determined. At the same time, IBMX (final concentration of […]) was added into the serum-free culture medium, and the number of cells was 2000/5 μl/well.
4.2.3. 5 μl of the test compound and 5 μl of the cell suspension containing IBMX were added and mixed. A 384-well plate was sealed with a foil paper. The mixtures were protected from light and reacted at room temperature for […].
4.3.1 1 μl cAMP-d2 was diluted to 20 μl by using cAMP&cGMP conjugates & lysis buffer. 4.3.2 1 μl anti-cAMP-Cryptate was diluted to 20 μl by using cAMP&cGMP conjugates&lysis buffer.
4.3.3 After 30 minutes, 5 μl (1.3.1) and 5 μl (1.3.2) were added and a 384-well plate was sealed with a foil paper. The mixtures were protected from light and reacted at room temperature.
4.4. After 60 minutes, the values were detected by Envision 2101 microplate reader (PerkinElmer).

HEK293 cells = assay: CCK-8 cytotoxicity test; conditions: for CCK-8 Assay (30 μM): cytotoxicity on HEK293 cells at 30 μM; for CCK-8 Assay (100 μM): cytotoxicity on HEK293 cells at 100 μM
Method: The cytotoxicity of the compounds was evaluated by using CCK-8 experiment. CCK-8 is an indicator of redox reaction. In the presence of the electron carrier 1-Methoxy PMS, dehydrogenase in living cells is used to catalyze the tetrazolium salt WST-8 to form formazan dye. The production amount of formazan dye has a linear relationship with the number of living cells. The light absorption value measured at 450 nm using a microplate reader can indirectly reflect the number of living cells. Therefore, this method is used for the activity detection of some bioactive factors, large-scale anti-tumor drug screening, cell proliferation test, cytotoxicity test, and drug sensitivity test. This experiment is used to evaluate the cytotoxicity of the compounds. 2 μg of the chimeric plasmid LBD(hFXR)-pbind and 2 μg of Luciferase reporter plasmid were co-transfected into 2×10^6 HEK293 cells and inoculated in transparent 96-well plates. After 24 h, the culture medium was discarded and the test compound (diluted in serum-free culture medium, containing 1% DMSO) was added and incubated for 1 h, then FXR agonist GW4064 (300 nM) was added to agitate for 4 h. 10 μl detection reagent for CCK-8 was added to each well. After 2 hours, absorbance values at 450 nm and 650 nm (as reference wavelength) were detected with Flextation instrument.

| Compound | IC50 (FXR) [µM] | EC50 (TGR5) [µM] | CCK-8 Assay (30 μM) (HEK293 cells) | CCK-8 Assay (100 μM) (HEK293 cells) |
| --- | --- | --- | --- | --- |
| CC(C)[C@@H]1CC[C@]2(C(=O)NCC(=O)O)CC[C@]3(C)C(CCC4[C@@]5(C)CC[C@@H](O)C(C)(C)C5CC[C@]43C)C12 (stereo partly drawn) [Compound C1] | 13.9 | > 100 | no | no |
| CC(=O)O[C@@H]1CC[C@@]2(C)C(CC[C@]3(C)C2CCC2C4[C@H](C(C)C)CC[C@]4(C(=O)NCC(=O)O)CC[C@]23C)C1(C)C (stereo partly drawn) [Compound C2] | 6.31 | > 100 | no | no |
| CCC(=O)O[C@@H]1CC[C@@]2(C)C(CC[C@]3(C)C2CCC2C4[C@H](C(C)C)CC[C@]4(C(=O)NCC(=O)O)CC[C@]23C)C1(C)C (stereo partly drawn) [Compound C3] | 3.89 | > 100 | no | no |
| CCCC(=O)O[C@@H]1CC[C@@]2(C)C(CC[C@]3(C)C2CCC2C4[C@H](C(C)C)CC[C@]4(C(=O)NCC(=O)O)CC[C@]23C)C1(C)C (stereo partly drawn) [Compound C4] | 2.05 | > 100 | no | no |
| CCCC(=O)O[C@H]1CC[C@@]2(C)C(CC[C@]3(C)C2CCC2C4[C@H](C(C)C)CC[C@]4(C(=O)NCC(=O)O)CC[C@]23C)C1(C)C (stereo partly drawn) [Compound C12] | 8.27 | > 100 | no | no |
| CC(C)[C@@H]1CC[C@]2(C(=O)NCC(=O)O)CC[C@]3(C)C(CCC4[C@@]5(C)CC[C@@H](OC(=O)c6cccnc6)C(C)(C)C5CC[C@]43C)C12 (stereo partly drawn) [Compound C16] | 5.67 | > 100 | no | no |
